According to ChEMBL document CHEMBL5137133, “Effects of the Anthocyanin Hirsutidin on Gastric Ulcers: Improved Healing through Antioxidant Mechanisms” (J Nat Prod, 2022):
Calls of active or inactive are those of the source. The rule behind the calls is not given here.

Legend:
Rattus norvegicus [1] = experiment: Anti-ulcer activity in Wistar rat model of ethanol-induced gastric ulcer assessed as attenuation of TNFalpha level at 10 to 20 mg/kg, po administered once daily for 7 days followed by ethanol injection after 1 hr post last dose and measured after 4 hrs by ELISA; format: functional; conditions: dose 10-20 mg/kg, time 173 hrs
[2] = Acute toxicity in po dosed mouse assessed as morbidity; format: organism-based; conditions: in vivo
[3] = Acute toxicity in po dosed mouse assessed as mortality; format: organism-based; conditions: in vivo
Rattus norvegicus [4] = experiment: Anti-ulcer activity in Wistar rat model of ethanol-induced gastric ulcer assessed as increase in gastric pH at 10 mg/kg, po administered once daily for 7 days followed by ethanol injection after 1 hr post last dose and measured after 4 hrs; format: functional; conditions: time 173 hrs
Rattus norvegicus [5] = experiment: Anti-ulcer activity in Wistar rat model of ethanol-induced gastric ulcer assessed as increase in gastric pH at 20 mg/kg, po administered once daily for 7 days followed by ethanol injection after 1 hr post last dose; format: functional; conditions: time 173 hrs
Rattus norvegicus [6] = experiment: Anti-ulcer activity in Wistar rat model of ethanol-induced gastric ulcer assessed as reduction in total acidity levels at 10 to 20 mg/kg, po administered once daily for 7 days followed by ethanol injection after 1 hr post last dose and measured after 4 hrs; format: functional; design: scale not given: the % may be the effect or the level left; conditions: dose 10-20 mg/kg, time 173 hrs
Rattus norvegicus [7] = experiment: Anti-ulcer activity in Wistar rat model of ethanol-induced gastric ulcer assessed as reduction in ulcer score index at 10 to 20 mg/kg, po administered once daily for 7 days followed by ethanol injection after 1 hr post last dose and measured after 4 hrs; format: functional, organism-based; conditions: dose 10-20 mg/kg, time 173.0 hrs
Rattus norvegicus [8] = experiment: Anti-ulcer activity in Wistar rat model of ethanol-induced gastric ulcer assessed as restoration of endogenous GSH levels at 10 to 20 mg/kg, po administered once daily for 7 days followed by ethanol injection after 1 hr post last dose and measured after 4 hrs by Ellman's method; format: functional, organism-based; conditions: dose 10-20 mg/kg, time 173.0 hrs
Rattus norvegicus [9] = experiment: Anti-ulcer activity in Wistar rat model of ethanol-induced gastric ulcer assessed as restoration of endogenous SOD levels at 10 to 20 mg/kg, po administered once daily for 7 days followed by ethanol injection after 1 hr post last dose and measured after 4 hrs; format: functional, organism-based; conditions: dose 10-20 mg/kg, time 173.0 hrs
Rattus norvegicus [10] = experiment: Anti-ulcer activity in Wistar rat model of ethanol-induced gastric ulcer assessed as restoration of endogenous CAT levels at 10 to 20 mg/kg, po administered once daily for 7 days followed by ethanol injection after 1 hr post last dose and measured after 4 hrs by H2O2 decomposition assay; format: functional, organism-based; conditions: dose 10-20 mg/kg, time 173.0 hrs
Rattus norvegicus [11] = experiment: Anti-ulcer activity in Wistar rat model of ethanol-induced gastric ulcer assessed as reduction in MDA levels at 10 to 20 mg/kg, po administered once daily for 7 days followed by ethanol injection after 1 hr post last dose and measured after 4 hrs by Wills method; format: functional; design: scale not given: the % may be the effect or the level left; conditions: dose 10-20 mg/kg, time 173 hrs
Rattus norvegicus [12] = experiment: Anti-ulcer activity in Wistar rat model of ethanol-induced gastric ulcer assessed as reduction in MPO levels at 10 to 20 mg/kg, po administered once daily for 7 days followed by ethanol injection after 1 hr post last dose and measured after 4 hrs; format: functional, organism-based; conditions: dose 10-20 mg/kg, time 173.0 hrs
Rattus norvegicus [13] = experiment: Anti-ulcer activity in Wistar rat model of ethanol-induced gastric ulcer assessed as increase in PGE2 levels at 10 to 20 mg/kg, po administered once daily for 7 days followed by ethanol injection after 1 hr post last dose and measured after 4 hrs by ELISA; format: functional, organism-based; conditions: dose 10-20 mg/kg, time 173.0 hrs
Rattus norvegicus [14] = experiment: Anti-ulcer activity in Wistar rat model of ethanol-induced gastric ulcer assessed as protection of NO depletion at 10 to 20 mg/kg, po administered once daily for 7 days followed by ethanol injection after 1 hr post last dose and measured after 4 hrs by ELISA; format: functional; conditions: dose 10-20 mg/kg, time 173 hrs
Rattus norvegicus [15] = experiment: Anti-ulcer activity in Wistar rat model of ethanol-induced gastric ulcer assessed as attenuation of AST level at 10 to 20 mg/kg, po administered once daily for 7 days followed by ethanol injection after 1 hr post last dose and measured after 4 hrs by ELISA; format: functional; conditions: dose 10-20 mg/kg, time 173 hrs
Rattus norvegicus [16] = experiment: Anti-ulcer activity in Wistar rat model of ethanol-induced gastric ulcer assessed as attenuation of ALT level at 10 to 20 mg/kg, po administered once daily for 7 days followed by ethanol injection after 1 hr post last dose and measured after 4 hrs by ELISA; format: functional; conditions: dose 10-20 mg/kg, time 173 hrs
Rattus norvegicus [17] = experiment: Anti-ulcer activity in Wistar rat model of ethanol-induced gastric ulcer assessed as attenuation of ALP level at 10 to 20 mg/kg, po administered once daily for 7 days followed by ethanol injection after 1 hr post last dose and measured after 4 hrs by ELISA; format: functional; conditions: dose 10-20 mg/kg, time 173 hrs
Rattus norvegicus [18] = experiment: Anti-ulcer activity in Wistar rat model of ethanol-induced gastric ulcer assessed as reduction in serum IL-1beta level at 10 to 20 mg/kg, po administered once daily for 7 days followed by ethanol injection after 1 hr post last dose and measured after 4 hrs by ELISA; format: functional, organism-based; conditions: dose 10-20 mg/kg, time 173.0 hrs
Rattus norvegicus [19] = experiment: Anti-ulcer activity in Wistar rat model of ethanol-induced gastric ulcer assessed as reduction in serum IL-6 level at 10 to 20 mg/kg, po administered once daily for 7 days followed by ethanol injection after 1 hr post last dose and measured after 4 hrs by ELISA; format: functional, organism-based; conditions: dose 10-20 mg/kg, time 173.0 hrs
Rattus norvegicus [20] = experiment: Anti-ulcer activity in Wistar rat model of ethanol-induced gastric ulcer assessed as protection against gastric tissue damages at 10 to 20 mg/kg, po administered once daily for 7 days followed by ethanol injection after 1 hr post last dose and measured after 4 hrs by ELISA; format: functional, organism-based; conditions: dose 10-20 mg/kg, time 173.0 hrs

COc1cc(O)c2cc(O)c(-c3cc(OC)c(O)c(OC)c3)[o+]c2c1
Activity (Rattus norvegicus [1]): 27.59%
Activity [2]: Non-Toxic
Activity [3]: Non-Toxic
pH (Rattus norvegicus [4]): 7.17
pH (Rattus norvegicus [5]): 6.36
Activity (Rattus norvegicus [6]): 37.76%
Activity (Rattus norvegicus [7]): Active
Activity (Rattus norvegicus [8]): Active
Activity (Rattus norvegicus [9]): Active
Activity (Rattus norvegicus [10]): Active
Activity (Rattus norvegicus [11]): 49.25%
Activity (Rattus norvegicus [12]): Active
Activity (Rattus norvegicus [13]): Active
Activity (Rattus norvegicus [14]): 85.1%
Activity (Rattus norvegicus [15]): 35.3%
Activity (Rattus norvegicus [16]): 38.85%
Activity (Rattus norvegicus [17]): 47.68%
Activity (Rattus norvegicus [18]): Active
Activity (Rattus norvegicus [19]): Active
Activity (Rattus norvegicus [20]): Active
